Laboratory results reported in the supplement of paper PMC10307832.

Columns and labels:
Experiment in all cases: relative viability (nuclei count vs DMSO), 5 days (fraction); higher = more cells survive
Dinaciclib + Lapatinib = compound: CCc1cnn2c(NCc3ccc[n+]([O-])c3)cc(N3CCCC[C@H]3CCO)nc12 [Dinaciclib] + CS(=O)(=O)CCNCc1ccc(-c2ccc3ncnc(Nc4ccc(OCc5cccc(F)c5)c(Cl)c4)c3c2)o1 [Lapatinib] (partner 2 µM)
Method in brief: (§1)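 Dosing by pin tool came one day after lung cancer cell lines were seeded in 1536-well plates, using either one drug or a fixed anchor-drug dose plus five library-drug doses (not always all listed) in √10 steps. After 5 days, nuclei were counted on 4× images. Relative viability is treated-well nuclei count divided by vehicle-well nuclei count, and values are medians of duplicate plates.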

Dinaciclib + AZD7762 = compound: CCc1cnn2c(NCc3ccc[n+]([O-])c3)cc(N3CCCC[C@H]3CCO)nc12 [Dinaciclib] + NC(=O)Nc1cc(-c2cccc(F)c2)sc1C(=O)N[C@H]1CCCNC1 [AZD7762] (partner 0.2 µM)
Method in brief: as §1

Dinaciclib + Dasatinib = compound: CCc1cnn2c(NCc3ccc[n+]([O-])c3)cc(N3CCCC[C@H]3CCO)nc12 [Dinaciclib] + Cc1nc(Nc2ncc(C(=O)Nc3c(C)cccc3Cl)s2)cc(N2CCN(CCO)CC2)n1 [Dasatinib] (partner 0.075 µM)
Method in brief: as §1

Dinaciclib + Alpelisib = compound: CCc1cnn2c(NCc3ccc[n+]([O-])c3)cc(N3CCCC[C@H]3CCO)nc12 [Dinaciclib] + Cc1nc(NC(=O)N2CCC[C@H]2C(N)=O)sc1-c1ccnc(C(C)(C)C(F)(F)F)c1 [Alpelisib] (partner 2 µM)
Method in brief: as §1

Dinaciclib + Phenformin = compound: CCc1cnn2c(NCc3ccc[n+]([O-])c3)cc(N3CCCC[C@H]3CCO)nc12 [Dinaciclib] + N=C(N)NC(=N)NCCc1ccccc1 [Phenformin] (partner 250 µM)
Method in brief: as §1

Cell Line	relative viability (Dinaciclib + Lapatinib; first compound 0.009487 µM)	relative viability (Dinaciclib + Lapatinib; first compound 0.03 µM)	relative viability (Dinaciclib + Lapatinib; first compound 0.09487 µM)	relative viability (Dinaciclib + Lapatinib; first compound 0.3 µM)	relative viability (Dinaciclib + AZD7762; first compound 0.009487 µM)	relative viability (Dinaciclib + AZD7762; first compound 0.03 µM)	relative viability (Dinaciclib + AZD7762; first compound 0.09487 µM)	relative viability (Dinaciclib + AZD7762; first compound 0.3 µM)	relative viability (Dinaciclib + Dasatinib; first compound 0.009487 µM)	relative viability (Dinaciclib + Dasatinib; first compound 0.03 µM)	relative viability (Dinaciclib + Dasatinib; first compound 0.09487 µM)	relative viability (Dinaciclib + Dasatinib; first compound 0.3 µM)	relative viability (Dinaciclib + Alpelisib; first compound 0.009487 µM)	relative viability (Dinaciclib + Alpelisib; first compound 0.03 µM)	relative viability (Dinaciclib + Alpelisib; first compound 0.09487 µM)	relative viability (Dinaciclib + Alpelisib; first compound 0.3 µM)	relative viability (Dinaciclib + Phenformin; first compound 0.009487 µM)	relative viability (Dinaciclib + Phenformin; first compound 0.03 µM)	relative viability (Dinaciclib + Phenformin; first compound 0.09487 µM)	relative viability (Dinaciclib + Phenformin; first compound 0.3 µM)
HCC-827	0.191	0.183	0.149	0.132	0.243	0.162	0.105	0.143	0.285	0.221	0.135	0.184	0.879	0.601	0.126	0.123	0.385	0.339	0.121	0.123
HOP-62	0.917	0.281	0.0612	0.0566	0.706	0.225	0.0545	0.068	0.662	0.33	0.0666	0.0723	0.828	0.27	0.0713	0.0692	0.54	0.299	0.0816	0.0886
IA-LM	0.73	0.0584	0.053	0.0435	–	–	–	–	–	–	–	–	0.669	0.0488	0.0282	0.0261	–	–	–	–
LC-2-ad	0.9	0.0784	0.058	0.0576	0.87	0.118	0.11	0.128	0.279	0.149	0.149	0.175	0.811	0.0609	0.0619	0.0681	0.334	0.219	0.181	0.18
LCLC-97TM1	0.662	0.173	0.0769	0.0958	0.385	0.0625	0.0497	0.0774	0.718	0.434	0.14	0.108	0.197	0.129	0.121	0.107	0.391	0.257	0.153	0.129
LCLC-103H	–	–	–	–	0.881	0.351	0.279	0.197	0.41	0.432	0.0877	0.0685	0.934	0.844	0.248	0.113	0.292	0.327	0.11	0.0875
NCI-H441	–	–	–	–	1.17	0.758	0.141	0.16	0.562	0.186	0.146	0.144	0.594	0.128	0.147	0.15	0.688	0.184	0.164	0.136
NCI-H520	0.509	0.115	0.104	0.141	–	–	–	–	0.201	0.151	0.165	0.155	0.601	0.148	0.141	0.147	0.476	0.203	0.167	0.166
NCI-H522	–	–	–	–	0.899	0.991	0.359	0.211	0.979	0.589	0.36	0.319	–	–	–	–	0.598	0.5	0.341	0.339
NCI-H661	0.41	0.183	0.181	0.191	–	–	–	–	0.38	0.144	0.17	0.132	0.346	0.147	0.176	0.152	0.192	0.209	0.185	0.185
NCI-H1650	0.648	0.15	0.169	0.143	–	–	–	–	0.197	0.171	0.179	0.133	–	–	–	–	0.262	0.139	0.151	0.126
NCI-H1703	1.01	0.133	0.114	0.134	0.132	0.125	0.0862	0.087	–	–	–	–	0.419	0.119	0.0849	0.115	–	–	–	–
NCI-H2009	0.493	0.108	0.101	0.0913	–	–	–	–	0.199	0.0887	0.072	0.0636	0.923	0.151	0.102	0.0919	0.463	0.159	0.11	0.105
NCI-H2023	0.817	0.0669	0.0655	0.0585	–	–	–	–	0.393	0.0627	0.0546	0.0553	0.538	0.25	0.064	0.0614	0.384	0.0797	0.0696	0.0629
NCI-H2228	0.764	0.112	0.0806	0.11	–	–	–	–	0.399	0.106	0.0787	0.0912	0.548	0.122	0.108	0.119	0.256	0.11	0.0988	0.103
SK-LU-1	0.717	0.178	0.129	0.13	–	–	–	–	0.173	0.142	0.134	0.135	0.637	0.197	0.18	0.194	0.394	0.11	0.133	0.129
SK-MES-1	0.5	0.355	0.16	0.151	–	–	–	–	0.217	0.109	0.0863	0.114	0.757	0.618	0.119	0.117	0.533	0.171	0.147	0.153
SW 900	–	–	–	–	0.705	0.405	0.179	0.148	0.61	0.246	0.0591	0.0806	–	–	–	–	0.612	0.141	0.0751	0.101
SW 1573	1.25	0.575	0.0951	0.0867	–	–	–	–	0.161	0.0578	0.0571	0.06	0.659	0.432	0.0931	0.106	0.303	0.0685	0.077	0.0659
UMC-11	0.442	0.179	0.143	0.169	–	–	–	–	0.209	0.175	0.142	0.144	0.285	0.147	0.135	0.158	0.214	0.197	0.192	0.185
